Key:
[1] = biological target: T1, Cocaine esterase (Homo sapiens, UniProt O00748); assay: Inhibition of hCES2A in human liver microsome assessed as reduction in fluorescein diacetate hydrolysis preincubated for 10 mins followed by substrate addition measured after 20 mins by fluorescence analysis; type: microsomes
T1 sequence (O00748 whole entry): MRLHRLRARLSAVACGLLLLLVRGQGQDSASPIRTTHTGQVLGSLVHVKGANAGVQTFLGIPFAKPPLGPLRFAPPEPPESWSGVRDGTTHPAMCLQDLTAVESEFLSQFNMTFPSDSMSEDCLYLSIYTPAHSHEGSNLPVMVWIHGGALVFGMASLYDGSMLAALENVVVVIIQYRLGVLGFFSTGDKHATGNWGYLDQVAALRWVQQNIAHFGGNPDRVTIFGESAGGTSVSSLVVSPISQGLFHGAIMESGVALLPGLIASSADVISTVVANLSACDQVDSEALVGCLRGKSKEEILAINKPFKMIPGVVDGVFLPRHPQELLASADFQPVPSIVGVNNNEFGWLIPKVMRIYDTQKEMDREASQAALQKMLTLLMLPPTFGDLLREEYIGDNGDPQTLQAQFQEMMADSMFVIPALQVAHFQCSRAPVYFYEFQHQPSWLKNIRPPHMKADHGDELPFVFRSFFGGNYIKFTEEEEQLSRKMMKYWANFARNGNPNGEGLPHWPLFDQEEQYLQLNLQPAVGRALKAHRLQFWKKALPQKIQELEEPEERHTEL

[2] = Metabolic stability at phase 2 in human liver microsomes assessed as half life at 10 uM by LC-UV analysis
[3] = Metabolic stability at phase 1 in human liver microsomes assessed as half life at 10 uM by LC-UV analysis
[4] = biological target: T2, Liver carboxylesterase 1 (Homo sapiens, UniProt P23141); assay: Inhibition of hCES1A in human liver microsome assessed as reduction in D-Iuciferin methyl ester hydrolysis preincubated for 10 mins followed by substrate addition measured after 10 mins by luminescence analysis; type: microsomes
T2 sequence (P23141 whole entry): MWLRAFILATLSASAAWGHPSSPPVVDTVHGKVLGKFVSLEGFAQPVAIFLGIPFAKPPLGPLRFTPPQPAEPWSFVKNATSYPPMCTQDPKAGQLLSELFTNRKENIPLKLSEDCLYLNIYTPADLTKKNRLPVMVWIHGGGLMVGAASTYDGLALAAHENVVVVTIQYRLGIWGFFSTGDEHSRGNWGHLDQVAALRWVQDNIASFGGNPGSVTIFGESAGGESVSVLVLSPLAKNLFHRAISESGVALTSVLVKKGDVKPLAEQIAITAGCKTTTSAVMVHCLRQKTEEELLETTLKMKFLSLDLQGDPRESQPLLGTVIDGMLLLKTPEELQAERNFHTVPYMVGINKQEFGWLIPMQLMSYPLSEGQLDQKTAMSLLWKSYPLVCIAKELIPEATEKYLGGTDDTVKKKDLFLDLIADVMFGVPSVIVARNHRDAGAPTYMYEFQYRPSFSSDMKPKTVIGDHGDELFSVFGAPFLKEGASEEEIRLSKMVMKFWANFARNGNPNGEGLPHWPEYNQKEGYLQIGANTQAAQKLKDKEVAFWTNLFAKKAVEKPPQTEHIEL

[5] = biological target: Cholinesterase (Homo sapiens, UniProt P06276); assay: Inhibition of BChE in human plasma assessed as reduction in butyrylthiocholineiodide hydrolysis preincubated for 3 mins followed by substrate addition; type: cell-free
Sequence of Cholinesterase (P06276 whole entry): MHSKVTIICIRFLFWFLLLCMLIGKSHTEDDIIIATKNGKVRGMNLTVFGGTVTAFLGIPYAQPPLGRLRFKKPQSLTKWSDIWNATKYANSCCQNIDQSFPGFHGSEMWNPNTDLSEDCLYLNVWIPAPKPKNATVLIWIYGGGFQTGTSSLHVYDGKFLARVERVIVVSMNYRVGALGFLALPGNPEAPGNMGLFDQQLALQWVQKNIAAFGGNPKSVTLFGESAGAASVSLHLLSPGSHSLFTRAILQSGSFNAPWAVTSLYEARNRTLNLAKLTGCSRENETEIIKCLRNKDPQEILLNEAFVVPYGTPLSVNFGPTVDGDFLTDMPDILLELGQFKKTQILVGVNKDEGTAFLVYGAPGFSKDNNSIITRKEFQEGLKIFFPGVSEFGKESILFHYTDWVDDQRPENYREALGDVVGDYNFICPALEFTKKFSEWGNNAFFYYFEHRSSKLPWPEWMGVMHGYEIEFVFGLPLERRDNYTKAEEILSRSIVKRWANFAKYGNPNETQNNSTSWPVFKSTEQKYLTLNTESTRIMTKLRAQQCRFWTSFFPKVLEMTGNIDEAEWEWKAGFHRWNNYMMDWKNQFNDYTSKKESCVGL

Row | Compound | IC50 [1] | further results
1 | O=C1/C(=C/c2ccc(O)cc2)Cc2ccc(O)cc21 | 5940 nM | –
2 | COc1cc(/C=C2\Cc3ccc(OC(C)C)cc3C2=O)ccc1O | 2860 nM | –
3 | COc1cc(/C=C2\Cc3ccc(O)cc3C2=O)ccc1O | 1090 nM | –
4 | COc1ccc(/C=C2\Cc3ccc(O)cc3C2=O)cc1 | 56000 nM | –
5 | COc1cc(/C=C2\Cc3ccc(N)cc3C2=O)ccc1O | 1480 nM | –
6 | CCCOc1ccc2c(c1)C(=O)/C(=C/c1ccc(O)c(OC)c1)C2 | 1620 nM | –
7 | COc1ccc2c(c1)C(=O)/C(=C/c1ccc(O)c(OC)c1)C2 | 2910 nM | –
8 | COc1ccc(/C=C2\Cc3ccc(O)cc3C2=O)c(OC)c1OC | 5230 nM | –
9 | COc1cc(/C=C2\Cc3ccccc3C2=O)ccc1O | 1310 nM | –
10 | O=C1/C(=C/c2ccc(O)c(O)c2)Cc2ccc(O)cc21 | 2810 nM | –
11 | COc1cc(/C=C2\Cc3ccc(N4CCCC4)cc3C2=O)ccc1O | – | half-life at 10 µM [2]: 1.72 h; half-life at 10 µM [3]: 1.6 h; IC50 [4]: > 100000 nM; IC50 [5]: > 100000 nM
